Reference: PubChem BioAssay (NCI)
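Compound exposure: 48 hours, 5 concentrations, 96-well plates. TGI denotes the concentration required for complete inhibition of growth.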

How the values were obtained:
Assay in all cases: NCI-60 cell line screen, 48 h
NCI-H23 lung = tested on: NCI-H23 lung
SR leukemia = tested on: SR leukemia
MOLT-4 leukemia = tested on: MOLT-4 leukemia
HCC-2998 colon = tested on: HCC-2998 colon
SNB-19 CNS = tested on: SNB-19 CNS
SK-OV-3 ovarian = tested on: SK-OV-3 ovarian
MALME-3M melanoma = tested on: MALME-3M melanoma
NCI-H522 lung = tested on: NCI-H522 lung
SF-295 CNS = tested on: SF-295 CNS
SK-MEL-28 melanoma = tested on: SK-MEL-28 melanoma
RPMI-8226 leukemia = tested on: RPMI-8226 leukemia
UACC-257 melanoma = tested on: UACC-257 melanoma
CCRF-CEM leukemia = tested on: CCRF-CEM leukemia
LOX IMVI melanoma = tested on: LOX IMVI melanoma
HOP-62 NSCLC = tested on: HOP-62 NSCLC
SN12C renal = tested on: SN12C renal
786-0 renal = tested on: 786-0 renal
OVCAR-3 ovarian = tested on: OVCAR-3 ovarian
A498 renal = tested on: A498 renal

Row | Structure (SMILES) | TGI (NCI-H23 lung) | TGI (SR leukemia) | TGI (MOLT-4 leukemia) | TGI (HCC-2998 colon) | TGI (SNB-19 CNS) | TGI (SK-OV-3 ovarian) | TGI (MALME-3M melanoma) | TGI (NCI-H522 lung) | TGI (SF-295 CNS) | TGI (SK-MEL-28 melanoma) | TGI (RPMI-8226 leukemia) | TGI (UACC-257 melanoma) | TGI (CCRF-CEM leukemia) | TGI (LOX IMVI melanoma) | TGI (HOP-62 NSCLC) | TGI (SN12C renal) | TGI (786-0 renal) | TGI (OVCAR-3 ovarian) | TGI (A498 renal)
1 | C=CCCCN1CCCCC1=S | > 100 µM | > 100 µM | > 100 µM | > 100 µM | > 100 µM | > 100 µM | > 100 µM | > 100 µM | > 100 µM | > 100 µM | > 100 µM | > 100 µM | > 100 µM | > 100 µM | > 100 µM | > 100 µM | > 100 µM | > 100 µM | –
2 | CC1SC2=NC3=C(c4ccccc4C3=O)C(c3ccccc3Cl)N2C1=O (stereo unspecified) | > 100 µM | – | > 100 µM | > 100 µM | > 100 µM | > 100 µM | > 100 µM | 96.3 µM | > 100 µM | > 100 µM | > 100 µM | > 100 µM | > 100 µM | > 100 µM | > 100 µM | > 100 µM | > 100 µM | > 100 µM | > 100 µM
3 | CO/N=C(/C(=O)Nc1c[n+](CC(=O)[O-])cs1)c1csc(N)n1 | > 100 µM | – | > 100 µM | > 100 µM | > 100 µM | > 100 µM | > 100 µM | > 100 µM | > 100 µM | – | > 100 µM | > 100 µM | > 100 µM | > 100 µM | – | > 100 µM | > 100 µM | > 100 µM | > 100 µM
4 | CSc1nc(NC2OCC(OC(C)=O)C(OC(C)=O)C2OC(C)=O)c2c(n1)OCC2=O (stereo unspecified) | > 100 µM | – | > 100 µM | > 100 µM | > 100 µM | > 100 µM | > 100 µM | > 100 µM | > 100 µM | > 100 µM | > 100 µM | > 100 µM | > 100 µM | > 100 µM | > 100 µM | > 100 µM | > 100 µM | > 100 µM | > 100 µM
5 | COc1ccc(-c2cc(=O)c3cc(Cl)ccc3[nH]2)cc1 | > 100 µM | > 100 µM | > 100 µM | > 100 µM | > 100 µM | > 100 µM | > 100 µM | > 100 µM | > 100 µM | > 100 µM | > 100 µM | > 100 µM | > 100 µM | > 100 µM | > 100 µM | > 100 µM | > 100 µM | > 100 µM | –
6 | C#CC(C)(C)OCCCCOc1cc(O)c2c(=O)c3ccccc3n(C)c2c1 | > 100 µM | > 100 µM | – | > 100 µM | > 100 µM | > 100 µM | > 100 µM | > 100 µM | > 100 µM | > 100 µM | > 100 µM | > 100 µM | > 100 µM | > 100 µM | > 100 µM | > 100 µM | > 100 µM | > 100 µM | > 100 µM
